Among the test systems are 786-0 renal; HOP-62 NSCLC; KM12 colon; OVCAR-3 ovarian; SF-268 CNS; SK-MEL-28 melanoma; SK-MEL-5 melanoma; SNB-75 CNS; SW-620 colon; T-47D breast.
Assay in all cases: DTP human tumour cell line panel, 48 h

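1) Cells in 96-well plates. 2) Compound, 48 h, 5 concentrations. 3) Linear interpolation between surrounding doses. 4) Unreached endpoint = highest concentration. TGI denotes the concentration required for complete inhibition of growth.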

One may read the TGI as the concentration at which net growth stops. The low end stands for more potent growth arrest, the high end for less potent growth arrest.

Regarding `CCOC(=O)c1c(C)n(Cc2ccc(Cl)cc2Cl)c2c1cc(O)c1[nH]c3c(c12)CCCC3`, the total growth inhibition concentration (TGI) with 786-0 renal was greater than 100 µM; in the experiment on HOP-62 NSCLC, 93.7 µM; in the experiment with KM12 colon, 67.2 µM; with OVCAR-3 ovarian, greater than 100 µM; in the experiment on SF-268 CNS, 56.4 µM; in the experiment with SK-MEL-28 melanoma, 45 µM. Also, the TGI is 44.5 µM in the experiment with SK-MEL-5 melanoma, 48.6 µM in the experiment on SNB-75 CNS, greater than 100 µM with SW-620 colon and greater than 100 µM in the experiment with T-47D breast.

`O=c1[nH]cc(NCCCl)c(=O)[nH]1`: the TGI with 786-0 renal, with HOP-62 NSCLC, with KM12 colon, in the experiment with OVCAR-3 ovarian, in the experiment with SF-268 CNS and with SK-MEL-28 melanoma was greater than 100 µM each time. Further, the total growth inhibition concentration (TGI) with SK-MEL-5 melanoma, in the experiment on SNB-75 CNS, with SW-620 colon and in the experiment on T-47D breast was greater than 100 µM throughout.

Take `C[C@@]1(O)C2CC3CC1(c1ccccc1)CC(/C3=N/O)/C2=N\O` (stereo not given in full): the TGI in the experiment on 786-0 renal, in the experiment on HOP-62 NSCLC, in the experiment on KM12 colon, in the experiment on OVCAR-3 ovarian, with SF-268 CNS and with SK-MEL-28 melanoma was greater than 100 µM in each case. The concentration for total growth inhibition (TGI) in the experiment on SK-MEL-5 melanoma, in the experiment on SNB-75 CNS, with SW-620 colon and in the experiment with T-47D breast was greater than 100 µM in each case.

Take `O=C(Nc1ccc(N2C(=O)CSC2c2ccccc2O)cc1)c1ccc(N2C(=O)CSC2c2ccccc2O)cc1` (stereo not given): the TGI with 786-0 renal, with HOP-62 NSCLC, with KM12 colon, with OVCAR-3 ovarian, in the experiment on SF-268 CNS and with SK-MEL-28 melanoma was greater than 100 µM throughout. The TGI in the experiment with SK-MEL-5 melanoma is greater than 100 µM; with SNB-75 CNS, 82.4 µM; with SW-620 colon, greater than 100 µM; in the experiment with T-47D breast, greater than 100 µM.

Regarding `O=c1[nH]c(Nc2ccccc2)nc2c1ncn2CC(O)CSCCO` (stereo not given), the concentration for total growth inhibition (TGI) in the experiment with 786-0 renal, in the experiment with HOP-62 NSCLC, in the experiment on KM12 colon, in the experiment with OVCAR-3 ovarian, with SF-268 CNS and in the experiment on SK-MEL-28 melanoma was greater than 100 µM each time. The TGI in the experiment with SK-MEL-5 melanoma, with SNB-75 CNS, in the experiment with SW-620 colon and in the experiment on T-47D breast was greater than 100 µM in each case.

With `CSc1ncc2c(n1)C(C#N)C1Sc3ccccc3N1C2=O` (stereo not given), the TGI in the experiment with 786-0 renal, with HOP-62 NSCLC, in the experiment with KM12 colon, in the experiment on OVCAR-3 ovarian, in the experiment with SF-268 CNS and with SK-MEL-28 melanoma was greater than 100 µM in each case. Also, the TGI in the experiment on SK-MEL-5 melanoma is greater than 100 µM; in the experiment on SNB-75 CNS, 66.3 µM; in the experiment on SW-620 colon, greater than 100 µM; in the experiment on T-47D breast, greater than 100 µM.

As for `COC(=O)Cc1cc(O)c2c(c1O)C(=O)c1ccccc1C2=O`, the TGI with 786-0 renal is greater than 77.1 µM; in the experiment with HOP-62 NSCLC it was 63.3 µM; with KM12 colon, greater than 100 µM; in the experiment with OVCAR-3 ovarian it was greater than 100 µM; with SF-268 CNS, greater than 100 µM; with SK-MEL-28 melanoma, greater than 100 µM. The TGI in the experiment with SK-MEL-5 melanoma is greater than 100 µM; in the experiment on SNB-75 CNS it was 49 µM; with SW-620 colon, greater than 100 µM; in the experiment with T-47D breast, greater than 100 µM.

For `COc1ccc([C@H]2[C@H]3COC(=O)[C@H]3C(C#N)=C3Sc4ccccc4N32)cc1`, the TGI with 786-0 renal was greater than 100 µM; with HOP-62 NSCLC, greater than 100 µM; in the experiment with KM12 colon it was greater than 91.2 µM; in the experiment on OVCAR-3 ovarian, 68 µM; in the experiment with SF-268 CNS, greater than 100 µM; with SK-MEL-28 melanoma, greater than 100 µM. The concentration for total growth inhibition (TGI) with SK-MEL-5 melanoma is greater than 57.3 µM; in the experiment on SNB-75 CNS it was greater than 26.7 µM; in the experiment on SW-620 colon it was greater than 100 µM; in the experiment on T-47D breast, greater than 82.5 µM.

Take `O=C(O)CN(CC(=O)O)C1CCCCC1N1CC(=O)OC(=O)C1` (stereo not given): the TGI in the experiment with 786-0 renal, in the experiment on HOP-62 NSCLC, in the experiment on KM12 colon, with OVCAR-3 ovarian, in the experiment with SF-268 CNS and in the experiment on SK-MEL-28 melanoma was greater than 100 µM in each case. For the same molecule, the TGI in the experiment on SK-MEL-5 melanoma was greater than 100 µM; in the experiment with SNB-75 CNS, 95.5 µM; in the experiment with SW-620 colon, greater than 100 µM; in the experiment on T-47D breast, greater than 100 µM.

As to `S=C1c2ccc(Cl)cc2-n2cnnc2C2CSCN12` (stereo not given), the TGI in the experiment on 786-0 renal, in the experiment with HOP-62 NSCLC, in the experiment with KM12 colon, with OVCAR-3 ovarian, with SF-268 CNS and in the experiment on SK-MEL-28 melanoma was greater than 100 µM throughout. In addition, the TGI in the experiment on SK-MEL-5 melanoma, with SNB-75 CNS, in the experiment with SW-620 colon and with T-47D breast was greater than 100 µM in each case.

Turning to `O=[N+]([O-])c1ccccc1OCCOc1ccccc1[N+](=O)[O-]`, the TGI in the experiment with 786-0 renal, in the experiment on HOP-62 NSCLC, in the experiment with KM12 colon, in the experiment with OVCAR-3 ovarian, with SF-268 CNS and in the experiment on SK-MEL-28 melanoma was greater than 100 µM in each case. In addition, the TGI with SK-MEL-5 melanoma, with SNB-75 CNS, in the experiment with SW-620 colon and in the experiment on T-47D breast was greater than 100 µM each time.
